We go through twelve molecules from ChEMBL document CHEMBL5291721, “A preclinical secondary pharmacology resource illuminates target-adverse drug reaction associations of marketed drugs” (Nat Commun, 2023).

In one assay the target is T1, Adenosine receptor A3 (Homo sapiens, UniProt P0DMS8).
T1 sequence (P0DMS8 whole entry): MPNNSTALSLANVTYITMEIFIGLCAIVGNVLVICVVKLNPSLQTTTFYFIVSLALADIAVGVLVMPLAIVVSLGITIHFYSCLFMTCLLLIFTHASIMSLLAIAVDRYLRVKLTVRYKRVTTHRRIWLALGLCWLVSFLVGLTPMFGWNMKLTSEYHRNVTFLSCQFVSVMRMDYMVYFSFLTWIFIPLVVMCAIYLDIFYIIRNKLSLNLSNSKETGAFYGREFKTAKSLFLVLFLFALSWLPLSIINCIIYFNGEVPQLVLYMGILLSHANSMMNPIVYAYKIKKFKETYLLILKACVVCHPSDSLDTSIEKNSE

Assay [1] deals with T2, Alpha-1A adrenergic receptor (Homo sapiens, UniProt P35348).
T2 sequence (P35348 whole entry): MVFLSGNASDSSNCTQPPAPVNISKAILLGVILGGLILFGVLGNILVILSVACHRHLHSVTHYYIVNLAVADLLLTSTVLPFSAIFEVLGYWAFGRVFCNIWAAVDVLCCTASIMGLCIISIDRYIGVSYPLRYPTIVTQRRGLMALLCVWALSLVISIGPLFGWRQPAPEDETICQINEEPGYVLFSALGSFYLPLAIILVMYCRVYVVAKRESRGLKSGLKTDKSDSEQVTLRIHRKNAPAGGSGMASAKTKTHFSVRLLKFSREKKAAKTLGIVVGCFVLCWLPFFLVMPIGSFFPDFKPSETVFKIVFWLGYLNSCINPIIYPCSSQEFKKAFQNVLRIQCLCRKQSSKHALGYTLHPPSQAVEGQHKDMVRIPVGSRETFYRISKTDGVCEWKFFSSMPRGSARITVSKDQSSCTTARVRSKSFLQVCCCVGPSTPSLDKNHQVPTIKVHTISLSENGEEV
Format: functional, cell-based.

Assay [2] addresses T3, Alpha-2A adrenergic receptor (Homo sapiens, UniProt P08913).
T3 sequence (P08913 whole entry): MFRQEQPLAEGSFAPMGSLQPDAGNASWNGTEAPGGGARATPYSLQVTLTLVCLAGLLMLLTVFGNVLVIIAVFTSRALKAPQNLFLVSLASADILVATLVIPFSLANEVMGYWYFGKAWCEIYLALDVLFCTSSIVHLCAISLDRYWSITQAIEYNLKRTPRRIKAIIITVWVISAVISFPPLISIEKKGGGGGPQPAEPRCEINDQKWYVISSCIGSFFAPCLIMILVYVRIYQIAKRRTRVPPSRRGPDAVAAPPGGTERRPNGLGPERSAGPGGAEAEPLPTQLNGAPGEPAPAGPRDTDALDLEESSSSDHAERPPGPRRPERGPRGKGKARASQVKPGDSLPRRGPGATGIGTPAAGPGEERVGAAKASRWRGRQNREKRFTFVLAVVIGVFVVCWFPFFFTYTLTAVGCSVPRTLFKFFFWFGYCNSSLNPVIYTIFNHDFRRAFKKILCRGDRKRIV
The class given is functional, cell-based.

The target in assay [3] is T3, Alpha-2A adrenergic receptor. Format: functional, cell-based. The source holds these as a separate data set.
The target of another assay is Vasopressin V2 receptor (Homo sapiens, UniProt P30518).
For assay [4], the target named is T4, Cholecystokinin receptor type A (Homo sapiens, UniProt P32238).
T4 sequence (P32238 whole entry): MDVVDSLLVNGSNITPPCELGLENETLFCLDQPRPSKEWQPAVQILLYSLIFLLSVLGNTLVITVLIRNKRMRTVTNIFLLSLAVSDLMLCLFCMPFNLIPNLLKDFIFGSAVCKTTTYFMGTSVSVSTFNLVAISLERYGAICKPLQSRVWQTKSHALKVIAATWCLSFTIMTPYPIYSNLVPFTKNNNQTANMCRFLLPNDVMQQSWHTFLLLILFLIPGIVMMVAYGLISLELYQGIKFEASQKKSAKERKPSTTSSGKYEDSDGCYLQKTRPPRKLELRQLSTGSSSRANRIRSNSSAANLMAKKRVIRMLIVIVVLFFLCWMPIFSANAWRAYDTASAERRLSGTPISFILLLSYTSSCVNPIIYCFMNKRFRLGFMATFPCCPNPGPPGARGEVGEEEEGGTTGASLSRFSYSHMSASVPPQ

The target of assay [5] is T5, Gastrin/cholecystokinin type B receptor (Homo sapiens, UniProt P32239).
T5 sequence (P32239 whole entry): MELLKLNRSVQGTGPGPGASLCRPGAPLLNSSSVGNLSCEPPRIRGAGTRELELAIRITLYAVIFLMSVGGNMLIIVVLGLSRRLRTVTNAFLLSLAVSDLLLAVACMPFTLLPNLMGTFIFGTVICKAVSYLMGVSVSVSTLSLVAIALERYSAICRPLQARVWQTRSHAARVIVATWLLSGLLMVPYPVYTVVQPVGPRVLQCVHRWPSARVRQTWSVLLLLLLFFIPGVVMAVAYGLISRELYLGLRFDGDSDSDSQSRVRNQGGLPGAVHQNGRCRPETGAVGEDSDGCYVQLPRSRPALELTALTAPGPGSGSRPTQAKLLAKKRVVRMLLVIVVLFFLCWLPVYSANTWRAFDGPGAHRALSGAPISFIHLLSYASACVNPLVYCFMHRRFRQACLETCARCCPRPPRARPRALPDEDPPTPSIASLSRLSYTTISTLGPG

Another assay has as its target Cannabinoid receptor 1 (Homo sapiens, UniProt P21554). The class given is functional, cell-based.
In assay [6] the target is Growth hormone secretagogue receptor type 1 (Homo sapiens, UniProt Q92847).
The target of assay [7] is Glutamate receptor ionotropic, NMDA 1 (Rattus norvegicus, UniProt P35439).
In another assay the target is Mu-type opioid receptor (Homo sapiens, UniProt P35372). In words: biochemical. The class given is functional.
Assay [8] addresses T2, Alpha-1A adrenergic receptor. The class given is functional, cell-based. The source holds these as a separate data set.
Note: assay procedure not described here.

Chain of Vasopressin V2 receptor (P30518 whole entry): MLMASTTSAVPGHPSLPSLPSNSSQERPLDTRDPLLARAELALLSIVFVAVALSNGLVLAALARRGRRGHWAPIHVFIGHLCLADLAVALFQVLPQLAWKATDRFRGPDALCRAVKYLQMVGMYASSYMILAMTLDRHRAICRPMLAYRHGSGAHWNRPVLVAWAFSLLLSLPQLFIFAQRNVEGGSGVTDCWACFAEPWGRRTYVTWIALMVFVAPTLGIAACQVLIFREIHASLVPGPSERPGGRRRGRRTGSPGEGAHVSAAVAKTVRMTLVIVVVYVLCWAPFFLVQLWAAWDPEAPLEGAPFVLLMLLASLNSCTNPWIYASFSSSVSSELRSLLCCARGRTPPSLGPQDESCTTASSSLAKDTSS
Chain of Growth hormone secretagogue receptor type 1 (Q92847 whole entry): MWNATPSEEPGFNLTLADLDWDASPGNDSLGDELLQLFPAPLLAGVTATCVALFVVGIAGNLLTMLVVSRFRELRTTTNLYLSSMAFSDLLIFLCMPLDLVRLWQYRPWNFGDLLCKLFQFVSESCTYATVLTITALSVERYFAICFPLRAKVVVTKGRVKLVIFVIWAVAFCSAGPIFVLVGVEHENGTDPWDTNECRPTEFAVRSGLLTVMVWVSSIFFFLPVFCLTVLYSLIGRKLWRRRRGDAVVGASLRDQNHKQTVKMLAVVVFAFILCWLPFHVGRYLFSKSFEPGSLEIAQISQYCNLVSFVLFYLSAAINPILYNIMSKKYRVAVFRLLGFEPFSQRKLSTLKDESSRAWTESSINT
Chain of Mu-type opioid receptor (P35372 whole entry): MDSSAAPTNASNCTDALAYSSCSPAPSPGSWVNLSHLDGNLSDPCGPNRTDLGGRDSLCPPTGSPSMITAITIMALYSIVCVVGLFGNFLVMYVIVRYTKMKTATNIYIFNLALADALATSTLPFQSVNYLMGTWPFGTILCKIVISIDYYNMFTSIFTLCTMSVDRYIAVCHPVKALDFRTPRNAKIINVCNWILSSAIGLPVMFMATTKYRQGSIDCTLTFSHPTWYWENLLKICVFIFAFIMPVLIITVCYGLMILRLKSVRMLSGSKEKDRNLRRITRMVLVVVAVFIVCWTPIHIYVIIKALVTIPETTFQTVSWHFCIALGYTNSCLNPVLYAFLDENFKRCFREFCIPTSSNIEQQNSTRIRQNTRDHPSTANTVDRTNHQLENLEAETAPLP
Chain of Cannabinoid receptor 1 (P21554 whole entry): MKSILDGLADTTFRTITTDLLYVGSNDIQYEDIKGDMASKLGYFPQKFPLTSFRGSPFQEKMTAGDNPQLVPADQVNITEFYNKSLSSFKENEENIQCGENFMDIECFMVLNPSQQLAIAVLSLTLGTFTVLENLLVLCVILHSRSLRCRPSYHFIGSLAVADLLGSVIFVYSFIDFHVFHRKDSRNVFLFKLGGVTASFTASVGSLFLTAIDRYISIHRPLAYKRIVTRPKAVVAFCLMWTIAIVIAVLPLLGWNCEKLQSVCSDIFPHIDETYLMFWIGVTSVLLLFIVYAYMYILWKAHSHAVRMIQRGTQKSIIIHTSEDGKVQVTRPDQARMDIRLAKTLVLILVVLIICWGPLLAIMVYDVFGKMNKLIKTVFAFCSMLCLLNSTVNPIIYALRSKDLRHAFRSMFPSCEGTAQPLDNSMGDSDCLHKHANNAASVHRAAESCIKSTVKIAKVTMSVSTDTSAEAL

For orientation: AC50 means the concentration giving half of the maximal activity seen. Read a low AC50 as activity at low concentration. Take `N#Cc1ccccc1-c1cc(-c2ccccn2)cn(-c2ccccc2)c1=O`: the AC50 (on Adenosine receptor A3; in [1]; in assay [2]; in [3]; at Vasopressin V2 receptor; in assay [4]) was greater than 30 µM in each case. Besides, the AC50 (in assay [5]; on Cannabinoid receptor 1; in assay [6]; in assay [7]; on Mu-type opioid receptor; in assay [8]) was greater than 30 µM in each case.
Regarding `N=C(N)NCCCCCCC(=O)NC(O)C(=O)NCCCCNCCCN` (stereo not drawn), the AC50 (at Adenosine receptor A3; in assay [1]; in assay [2]; in assay [3]; at Vasopressin V2 receptor; in [4]) was greater than 30 µM throughout. Also, the AC50 (in [5]; on Cannabinoid receptor 1; in assay [6]; in assay [7]; at Mu-type opioid receptor; in assay [8]) was greater than 30 µM throughout.
In the case of `Nc1ccc(C(=O)O)c(O)c1` [AMINOSALICYLIC ACID], the AC50 (at Adenosine receptor A3; in assay [1]; in assay [2]; in assay [3]; at Vasopressin V2 receptor; in [4]) was greater than 30 µM in each case. For the same molecule, the AC50 (in assay [5]; on Cannabinoid receptor 1; in assay [6]; in [7]; at Mu-type opioid receptor; in assay [8]) was greater than 30 µM in each case.
`O=C(CCCN1CCC(n2c(O)nc3ccccc32)CC1)c1ccc(F)cc1` [BENPERIDOL]: the AC50 at Adenosine receptor A3 was greater than 30 µM; in assay [1], greater than 30 µM; in assay [2], greater than 30 µM; in [3], 19.2 µM; on Vasopressin V2 receptor it was greater than 30 µM; in assay [4], greater than 30 µM. The AC50 in [5] is greater than 30 µM; on Cannabinoid receptor 1, greater than 30 µM; in assay [6] it was 17 µM; in assay [7] it was greater than 30 µM; at Mu-type opioid receptor it was greater than 30 µM; in assay [8], 0.0706 µM.
For the molecule `C=CC1=C(C(=O)O)N2C(=O)[C@@H](NC(=O)/C(=N\OCC(=O)O)c3csc(N)n3)[C@H]2SC1` [CEFIXIME], the concentration at half-maximal activity (AC50) (at Adenosine receptor A3; in [1]; in assay [2]; in assay [3]; at Vasopressin V2 receptor; in assay [4]) was greater than 30 µM in each case. Moreover, the AC50 (in assay [5]; at Cannabinoid receptor 1; in assay [6]; on Mu-type opioid receptor; in assay [8]) was greater than 30 µM throughout.
On to `O=C(O)c1ccccc1OP(=O)(O)O` [FOSFOSAL], for which the AC50 (at Adenosine receptor A3; in assay [1]; in assay [2]; in assay [3]; on Vasopressin V2 receptor; in assay [4]) was greater than 30 µM in each case. Besides, the AC50 (in assay [5]; at Cannabinoid receptor 1; in [6]; at Mu-type opioid receptor; in [8]) was greater than 30 µM in each case.
For the molecule `CC(=O)c1ccc2c(c1)N(CCCN1CCC(CCO)CC1)c1ccccc1S2` [PIPERACETAZINE], the AC50 (on Adenosine receptor A3; in assay [1]; in [2]; at Vasopressin V2 receptor; in assay [4]; in [5]) was greater than 30 µM in each case. Further, the AC50 is greater than 30 µM at Cannabinoid receptor 1; greater than 30 µM in assay [6]; greater than 30 µM in [7]; greater than 30 µM at Mu-type opioid receptor; 0.14 µM in [8].
In the case of `C[n+]1ccccc1/C=N/O` [PRALIDOXIME], the half-maximal activity concentration (AC50) (in [1]; in [2]; in assay [3]; on Cannabinoid receptor 1; in [7]; on Mu-type opioid receptor) was greater than 30 µM each time. In addition, the AC50 in assay [8] is greater than 30 µM.
Regarding `CC(NCCc1ccc(O)cc1)C(O)c1ccc(O)cc1` (stereo not drawn) [RITODRINE], the AC50 (at Adenosine receptor A3; in [1]; in [2]; in assay [3]; at Vasopressin V2 receptor; in assay [4]) was greater than 30 µM each time. In addition, the AC50 was greater than 30 µM in assay [5]; greater than 30 µM in [6]; greater than 30 µM in assay [7]; 8.1 µM on Mu-type opioid receptor; 2 µM in [8].
As to `CN1[C@@H]2CC[C@H]1C[C@@H](OC(=O)c1c[nH]c3ccccc13)C2` [TROPISETRON], the AC50 is greater than 30 µM on Adenosine receptor A3; greater than 30 µM in [1]; greater than 30 µM in assay [2]; greater than 30 µM in assay [3]; greater than 30 µM at Vasopressin V2 receptor; greater than 10 µM in [4]. The AC50 (in assay [5]; at Cannabinoid receptor 1; in assay [6]; on Mu-type opioid receptor; in [8]) was greater than 30 µM throughout.
`N#C[C@@H]1CCCN1C(=O)CNC12CC3CC(CC(O)(C3)C1)C2` [VILDAGLIPTIN]: the half-maximal activity concentration (AC50) (at Adenosine receptor A3; in [1]; in assay [2]; in [3]; on Vasopressin V2 receptor; in [4]) was greater than 30 µM in each case. Besides, the half-maximal activity concentration (AC50) (in assay [5]; in assay [6]; in [7]; on Mu-type opioid receptor; in assay [8]) was greater than 30 µM each time.
Consider COLISTIN, for which the concentration at half-maximal activity (AC50) (in [1]; in [2]; in assay [3]; on Cannabinoid receptor 1; in [7]; on Mu-type opioid receptor) was greater than 30 µM throughout. The molecule also displayed an AC50 in assay [8] greater than 30 µM.
